Article PMC3156243, “Properties and Crystal Structure of Methylenetetrahydrofolate Reductase from Thermus thermophilus HB8” (PLoS ONE, 2011)

Target: T1, MTHFR (methylenetetrahydrofolate reductase) (Thermus thermophilus, UniProt Q5SLG6)
T1 construct: gene TTHA0327
Assay: biochemical

T1 sequence (Q5SLG6 1-296): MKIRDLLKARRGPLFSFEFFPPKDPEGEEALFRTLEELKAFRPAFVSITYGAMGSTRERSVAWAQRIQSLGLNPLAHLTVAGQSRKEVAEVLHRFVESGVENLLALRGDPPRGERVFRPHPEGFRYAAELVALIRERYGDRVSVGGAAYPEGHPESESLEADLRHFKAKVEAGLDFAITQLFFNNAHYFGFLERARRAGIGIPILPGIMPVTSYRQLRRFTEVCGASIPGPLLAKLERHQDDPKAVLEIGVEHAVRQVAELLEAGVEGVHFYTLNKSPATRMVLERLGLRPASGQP

- Ki: 15 ± 6 µM
Compound: CN1c2c(nc(N)[nH]c2=O)NC[C@@H]1CNc1ccc(C(=O)N[C@@H](CCC(=O)O)C(=O)O)cc1 (mixture of isomers) [(6S)-5-CH3-H4folate]
